{"source": "patent US20130210852A1", "about": "“METHODS FOR TREATING INFECTION” (priority 2010, published 2013)", "key": {"[1]": {"system": "EAEC strain O42 adherence to HEp-2 cells", "experiment": "HEp-2 cell attachment assay (microscopy after Wright-Giemsa staining)", "format": "cell-based, human"}, "[2]": {"system": "EAEC adherence with dialyzed conditioned medium of HEp-2 cells", "experiment": "Effect of dialyzed HEp-2 supernatants on EAEC adherence", "format": "cell-based, human", "parameters": "dose or concentration left out as unconfirmed", "details": "HEp-2 treated 24 h, supernatant dialyzed; chambers with or without HEp-2 cells, 3 h", "method": "HEp-2 cells were cultured in T-175 flasks as described above. […] After 24 h, the medium was collected, loaded into regenerated cellulose dialysis tubing (cutoff, 6 to 8 kDa; Spectra/Por, Rancho Domiguez, Calif.), and dialyzed against 4 liters of PBS changed four times. Each dialysis step lasted at least 6 h and was carried out at 4° C. Dialyzed supernatants were either used immediately in adherence assays or stored at −20° C. until use.\nThe effect of supernatants on EAEC adherence was determined by mixing EAEC with the dialyzed media from the different antibiotic (or control) treatment groups and adding the bacteria to HEp-2 cells cultured in chambered slides or to chambered slides with no HEp-2 cells. Adherence was visualized microscopically as described above."}, "[3]": {"system": "C difficile", "experiment": "Susceptibility testing of C difficile isolates (rifaximin agar dilution, rifampin E strips)"}, "[4]": {"system": "HEp-2 cells", "experiment": "Cytokine arrays of HEp-2 supernatants (Panomics)", "details": "antibiotic 64 μg/ml, 24 h"}}, "data": [{"smiles": "CO[C@H]1/C=C/O[C@@]2(C)Oc3c(C)c(O)c4c(O)c(c(/C=N/N5CCN(C)CC5)c(O)c4c3C2=O)NC(=O)/C(C)=C\\C=C\\[C@H](C)[C@H](O)[C@@H](C)[C@@H](O)[C@@H](C)[C@H](OC(C)=O)[C@@H]1C", "note": "[Rifampin]", "values": [{"measurement": "EAEC O42 adherence to HEp-2 cells (microscopy)", "setting": "[1]", "value": "adhered in the traditional stacked-brick formation"}, {"measurement": "EAEC adherence after mixing with dialyzed supernatants of antibiotic-treated HEp-2 cells", "setting": "[2]", "value": "adhered to chambers independently of the presence of HEp-2 cells"}, {"measurement": "MIC50 against C difficile", "setting": "[3]; 359 isolates", "value": "<2", "unit": "ng/mL"}, {"measurement": "MIC90 against C difficile", "setting": "[3]; 359 isolates", "value": 4000, "unit": "ng/mL"}, {"measurement": "MIC50 against C difficile", "setting": "[3]; 359 isolates, listed as rifampin", "value": "< 2", "unit": "ng/mL"}, {"measurement": "Isolates resistant to rifampin (n = 28), (%)", "setting": "[3]; genotype A +, B +, BT +, tcdC-del +", "value": "(7) %"}, {"measurement": "Isolates resistant to rifampin (n = 28), (%)", "setting": "[3]; genotype A +, B +, BT +, tcdC-del −", "value": "(14) %"}, {"measurement": "Isolates resistant to rifampin (n = 28), (%)", "setting": "[3]; genotype A +, B +, BT −, tcdC-del +", "value": "(18) %"}, {"measurement": "Isolates resistant to rifampin (n = 28), (%)", "setting": "[3]; genotype A +, B +, BT −, tcdC-del −", "value": "(46) %"}, {"measurement": "Isolates resistant to rifampin (n = 28), (%)", "setting": "[3]; genotype A −, B −, BT −, tcdC-del −", "value": "(14) %"}, {"measurement": "cytokine profile of HEp-2 supernatants", "setting": "[4]", "value": "had the same profile, except that MIP5 was not detected"}]}]}
